What is called EC50 is the concentration giving half of the maximal effect.

The values that follow come from US20110038885A1, “CHEMOKINE ANALOGS” (priority 2007, published 2011).

One experiment concerns MCP-1. Description: In vitro chemotaxis (trans-well migration) v MCP-1. Format: cell-based, human. The essentials: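 Trans-well migration toward IL-8 or MCP-1 placed below, with agent added to THP-1 cells (10^4-10^6) in the top well and incubation at 37° C (e.g. 4 hours). MTT absorbance at 595 nm, interpolated on a cell standard curve, gives migrated cell numbers; TGFβ-type negative control and cytotoxicity check included.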

The next experiment concerns IL-8. Description: In vitro chemotaxis, inhibition v IL-8. The experiment is classed as cell-based, human. Further details: concentration or dose not given beside the values. The procedure:
To determine whether an agent inhibits a chemokine-induced activity, such as macrophage recruitment, varying amounts of the agent are mixed with cells in the presence of a known chemoattractant. For example, a range of known concentrations of an agent, e.g., a chemokine peptide, is incubated with a defined number (e.g., 10^4-10^6) of human THP-1 monocyte cells in individual wells of the top compartment of a trans-well plate. Chemokine, at a concentration known to cause significant migration of THP-1 cells in the trans-well migration assay, is placed in the lower compartment of a trans-well plate. Cells are then incubated at 37° C. for a period sufficient to allow migration, e.g., 4 hours. After incubation, the cells are gently removed from the top of the filter with a pipette, 20 μl of 20 mM EDTA in simple PBS is added into each top well, and incubated for 20 minutes at 4° C. The filter is carefully flushed with media using a gentle flow, and removed. A standard curve consisting of a two-fold dilution series of THP-1 cells (in 29 μl) is placed to accurately quantify the number of cells that have migrated. Migrated cells are stained with 3 μl of MTT stock dye solution which is added directly into each well (5 mg/ml in RPMI-1640 without phenol red) (Sigma Chemical Co., St. Louis, Mo., USA) and incubated at 37° C. for 4 hours. The media is carefully aspirated from each well, and the converted dye is solubilized by 20 μl of DMSO. Absorbance of converted dye is measured at a wavelength of 595 nm using an ELISA plate reader. The number of migrated cells in each well is then determined by interpolation of the standard curve (see also Imai et al., J. Biol. Chem., 272:15036, 1997). Any method suitable for counting cells can be used, for example, counting with a hemocytometer, incubation of the cells with MTT (see above), or FACS analysis. A negative control assay is also performed, using TGFβ or another non-chemokine chemoattractant (e.g., IL1β or TNFα). To assess whether the agent is cytotoxic, the same concentrations of agent are incubated with THP-1 cells. Agents which 1) are not cytotoxic at levels which inhibit migration, 2) are ineffective at inhibiting the negative control-induced migration, and 3) reduce or inhibit chemokine-induced THP-1 migration, are agents which fall within the scope of the invention.

Bridge positions count the residues as written; N and C are the ends. Square brackets hold non-standard residues; d marks the D form. Peptide text beside a SMILES is read from it. dDap = NC[C@@H](N)C(=O)O; Dab = NCC[C@H](N)C(=O)O A value given as a limit tells only on which side of the number the result lay.

The compound `CC[C@H](C)[C@@H]1NC(=O)[C@H](Cc2c[nH]c3ccccc23)NC(=O)[C@H](CCCCN)NC(=O)[C@H](CCC(N)=O)NC(=O)[C@H](CCCCN)NC(=O)[C@@H]2CCCN2C(=O)[C@H](CC(=O)O)NC(=O)[C@@H](NC(=O)[C@@H](N)CC(C)C)CSSC[C@@H](C(N)=O)NC(=O)[C@H](CCC(N)=O)NC1=O` [Example 10, Leu-c(Cys-Asp-Pro-Lys-Gln-Lys-Trp-Ile-Gln-Cys)-NH2] (H-LCDPKQKWIQC-NH2; disulfide 2-11) gave an EC50 in the experiment with MCP-1 of 10 nM. For the same compound, the “v IL-8 inhibition (%)” value in the experiment with IL-8 is reported as 102.2%.
For `CC[C@H](C)[C@@H]1NC(=O)[C@H](Cc2c[nH]c3ccccc23)NC(=O)[C@H](CCCCN)NC(=O)[C@H](CCC(N)=O)NC(=O)[C@H](CCCCN)NC(=O)[C@@H]2CCCN2C(=O)[C@@H](NC(=O)[C@H](CC(=O)O)NC(=O)[C@@H](N)CC(C)C)CSSC[C@@H](C(N)=O)NC(=O)[C@H](CCC(N)=O)NC1=O` [Example 11, Leu-Asp-c(Cys-Pro-Lys-Gln-Lys-Trp-Ile-Gln-Cys)-NH2] (H-LDCPKQKWIQC-NH2; disulfide 3-11) the same measures were 330 nM and 38.1%.
On the same counts, the results for `CC[C@H](C)[C@@H]1NC(=O)[C@H](Cc2c[nH]c3ccccc23)NC(=O)[C@H](CCCCN)NC(=O)[C@@H](NC(=O)[C@H](CCC(N)=O)NC(=O)[C@H](CCCCN)NC(=O)[C@@H]2CCCN2C(=O)[C@H](CC(=O)O)NC(=O)[C@@H](N)CC(C)C)CSSC[C@@H](C(N)=O)NC(=O)[C@H](CCC(N)=O)NC1=O` [Example 12, Leu-Asp-Pro-Lys-Gln-c(Cys-Lys-Trp-Ile-Gln-Cys)-NH2] (H-LDPKQCKWIQC-NH2; disulfide 6-11) are 50 nM and 94.8%.
Consider `CC[C@H](C)[C@@H]1NC(=O)[C@H](Cc2c[nH]c3ccccc23)NC(=O)[C@@H](NC(=O)[C@H](CCCCN)NC(=O)[C@H](CCC(N)=O)NC(=O)[C@H](CCCCN)NC(=O)[C@@H]2CCCN2C(=O)[C@H](CC(=O)O)NC(=O)[C@@H](N)CC(C)C)CSSC[C@@H](C(N)=O)NC(=O)[C@H](CCC(N)=O)NC1=O` [Example 13, Leu-Asp-Pro-Lys-Gln-Lys-c(Cys-Trp-Ile-Gln-Cys)-NH2] (H-LDPKQKCWIQC-NH2; disulfide 7-11), for which a half-maximal response in the experiment with MCP-1 (EC50) required 8000 nM. The “v IL-8 inhibition (%)” value in the experiment with IL-8 was 5.8%.
For `CC[C@H](C)[C@@H]1NC(=O)[C@@H](NC(=O)[C@H](Cc2c[nH]c3ccccc23)NC(=O)[C@H](CCCCN)NC(=O)[C@H](CCC(N)=O)NC(=O)[C@H](CCCCN)NC(=O)[C@@H]2CCCN2C(=O)[C@H](CC(=O)O)NC(=O)[C@@H](N)CC(C)C)CSSC[C@@H](C(N)=O)NC(=O)[C@H](CCC(N)=O)NC1=O` [Example 14, Leu-Asp-Pro-Lys-Gln-Lys-Trp-c(Cys-Ile-Gln-Cys)-NH2] (H-LDPKQKWCIQC-NH2; disulfide 8-11) the same measures were 2000 nM and 10.5%.
For `CC[C@H](C)[C@@H]1NC(=O)[C@@H](NC(=O)[C@H](Cc2c[nH]c3ccccc23)NC(=O)[C@@H](N)CCCCN)CSSC[C@@H](C(N)=O)NC(=O)[C@H](CCC(N)=O)NC1=O` [Example 15, Lys-Trp-c(Cys-Ile-Gln-Cys)-NH2] (H-KWCIQC-NH2; disulfide 3-6) the same measures were 3000 nM and 10.5%.
For `CC[C@H](C)[C@@H]1NC(=O)[C@H](Cc2c[nH]c3ccccc23)NC(=O)[C@H](CCCCN)NC(=O)[C@H](CCC(N)=O)NC(=O)[C@H](CCCCN)NC(=O)[C@@H]2CCCN2C(=O)[C@H](CC(=O)O)NC(=O)[C@H](CC(C)C)NC(=O)[C@@H](NC(C)=O)CSSC[C@@H](C(=O)N[C@H](CN)C(N)=O)NC(=O)[C@H](CCC(N)=O)NC1=O` [Example 16, Ac-c(Cys-Leu-Asp-Pro-Lys-Gln-Lys-Trp-Ile-Gln-Cys)-D-Dap-NH2] (Ac-CLDPKQKWIQC[dDap]-NH2; disulfide 1-11) the same measures were 800 nM and 19.8%.
Turning to `CC[C@H](C)[C@@H]1NC(=O)[C@H](Cc2c[nH]c3ccccc23)NC(=O)[C@H](CCCCN)NC(=O)[C@H](CCC(N)=O)NC(=O)[C@H](CCCCN)NC(=O)[C@@H]2CCCN2C(=O)[C@H](CC(=O)O)NC(=O)[C@H](CC(C)C)NC(=O)[C@@H](NC(=O)[C@H](CC(=O)O)NC(C)=O)CSSC[C@@H](C(=O)N[C@H](CN)C(N)=O)NC(=O)[C@H](CCC(N)=O)NC1=O` [Example 17, Ac-Asp-c(Cys-Leu-Asp-Pro-Lys-Gln-Lys-Trp-Ile-Gln-Cys)-D-Dap-NH2] (Ac-DCLDPKQKWIQC[dDap]-NH2; disulfide 2-12), the EC50 with MCP-1 was > 1000 nM. Also, in the experiment with IL-8, the “v IL-8 inhibition (%)” value was found to be 15.5%.
On the same counts, the results for `CC[C@H](C)[C@@H]1NC(=O)[C@H](Cc2c[nH]c3ccccc23)NC(=O)[C@H](CCCCN)NC(=O)[C@H](CCC(N)=O)NC(=O)[C@H](CCCCN)NC(=O)[C@@H]2CCCN2C(=O)[C@H](CC(=O)O)NC(=O)[C@H](CC(C)C)NC(=O)[C@@H](NC(C)=O)CSSC[C@@H](C(=O)N[C@@H](CCN)C(N)=O)NC(=O)[C@H](CCC(N)=O)NC1=O` [Example 18, Ac-c(Cys-Leu-Asp-Pro-Lys-Gln-Lys-Trp-Ile-Gln-Cys)-Dab-NH2] (Ac-CLDPKQKWIQC[Dab]-NH2; disulfide 1-11) are 20 nM and 103.5%.
On the same counts, the results for `CC[C@H](C)[C@@H]1NC(=O)[C@H](Cc2c[nH]c3ccccc23)NC(=O)[C@H](CCCCN)NC(=O)[C@H](CCC(N)=O)NC(=O)[C@@H](NC(=O)[C@H](CCCCN)NC(=O)[C@@H]2CCCN2C(=O)[C@H](CC(=O)O)NC(=O)[C@H](CC(C)C)NC(C)=O)CSSC[C@@H](C(N)=O)NC(=O)[C@H](CCC(N)=O)NC1=O` [Example 22, Ac-Leu-Asp-Pro-Lys-c(Cys-Gln-Lys-Trp-Ile-Gln-Cys)-NH2] (Ac-LDPKCQKWIQC-NH2; disulfide 5-11) are 900 nM and 16.8%.
As for `CC[C@H](C)[C@@H]1NC(=O)[C@H](Cc2c[nH]c3ccccc23)NC(=O)[C@H](CCCCN)NC(=O)[C@@H](NC(=O)[C@H](CCC(N)=O)NC(=O)[C@H](CCCCN)NC(=O)[C@@H]2CCCN2C(=O)[C@H](CC(=O)O)NC(=O)[C@H](CC(C)C)NC(C)=O)CSSC[C@@H](C(N)=O)NC(=O)[C@H](CCC(N)=O)NC1=O` [Example 23, Ac-Leu-Asp-Pro-Lys-Gln-c(Cys-Lys-Trp-Ile-Gln-Cys)-NH2] (Ac-LDPKQCKWIQC-NH2; disulfide 6-11), the EC50 with MCP-1 is > 1000 nM. In addition, the “v IL-8 inhibition (%)” value with IL-8 is reported as 13.4%.
On the same counts, the results for `CC[C@H](C)[C@@H]1NC(=O)[C@H](Cc2c[nH]c3ccccc23)NC(=O)[C@H](CCCCN)NC(=O)[C@H](CCC(N)=O)NC(=O)[C@H](CCCCN)NC(=O)[C@@H]2CCCN2C(=O)[C@H](CC(=O)O)NC(=O)[C@H](CC(C)C)NC(=O)[C@@H](NC(C)=O)CSSC[C@@H](C(N)=O)NC(=O)[C@@H](CCC(N)=O)NC1=O` [Example 24, Ac-c(Cys-Leu-Asp-Pro-Lys-Gln-Lys-Trp-Ile-D-Gln-Cys)-NH2] (Ac-CLDPKQKWI[dQ]C-NH2; disulfide 1-11) are 200 nM and 33.8%.
On to `CC[C@@H](C)[C@H]1NC(=O)[C@H](Cc2c[nH]c3ccccc23)NC(=O)[C@H](CCCCN)NC(=O)[C@H](CCC(N)=O)NC(=O)[C@H](CCCCN)NC(=O)[C@@H]2CCCN2C(=O)[C@H](CC(=O)O)NC(=O)[C@H](CC(C)C)NC(=O)[C@@H](NC(C)=O)CSSC[C@@H](C(N)=O)NC(=O)[C@H](CCC(N)=O)NC1=O` [Example 25, Ac-c(Cys-Leu-Asp-Pro-Lys-Gln-Lys-Trp-D-Ile-Gln-Cys)-NH2] (Ac-CLDPKQKW[dI]QC-NH2; disulfide 1-11), for which the EC50 in the experiment with MCP-1 is 30 nM. Also, the “v IL-8 inhibition (%)” value in the experiment with IL-8 is 96.9%.
For `CC[C@H](C)[C@@H]1NC(=O)[C@@H](Cc2c[nH]c3ccccc23)NC(=O)[C@H](CCCCN)NC(=O)[C@H](CCC(N)=O)NC(=O)[C@H](CCCCN)NC(=O)[C@@H]2CCCN2C(=O)[C@H](CC(=O)O)NC(=O)[C@H](CC(C)C)NC(=O)[C@@H](NC(C)=O)CSSC[C@@H](C(N)=O)NC(=O)[C@H](CCC(N)=O)NC1=O` [Example 26, Ac-c(Cys-Leu-Asp-Pro-Lys-Gln-Lys-D-Trp-Ile-Gln-Cys)-NH2] (Ac-CLDPKQK[dW]IQC-NH2; disulfide 1-11) the same measures were 20 nM and 94.9%.
